Results on four compounds are retold here after US11299458B2, “Crystalline compounds” (OTSUKA AMERICA PHARMACEUTICAL, INC., priority 2015, dated 2022).

The nature of series [1]: Physical stability of mixture of Forms A and B on heat exposure. The format is physicochemical. Conditions: exposure to 230° C. Here is the method: Tt,B→A is between 37 and 54° C. […] (Table 19 below).
A short description of series [2]: Binary interconversion (competitive) slurry experiments between Crystalline Forms A, B and C. The settings on record: from interconversion slurries. The format is physicochemical. Here is the method: Interconversion experiments are performed to test the hypothetical thermodynamic relationship between materials illustrated by the Energy—Temperature Diagram above. […] The choice of solvent affects the kinetics of polymorph conversion and not the thermodynamic relationship between polymorphic forms (Gu, C. H., Young, V. Jr., Grant, D. J., J. Pharm. Sci. 2001, 90 (11), 1878-1890).
Binary interconversion slurry experiments between Crystalline Forms A, B, and C in different solvent systems at temperatures spanning approximately 2 through 67° C. are summarized in Table 16 below. Saturated solutions are generated and then added to mixtures composed of approximately equivalent quantities of two of the polymorphs. The samples are slurried from overnight to three weeks and the solids harvested and analyzed by XRPD. The results of the interconversion studies indicate that the relative thermodynamic stability of the enantiotropes Crystalline Forms A, B, and C are correctly depicted by the proposed Energy—Temperature Diagram. In addition, Tt,C→B is expected below 2° C.

Series [3] in a line: Accelerated stress conditions (relative humidity stress), solid form by XRPD. The class given is physicochemical. The settings on record: two weeks. Here is the method: Relative Humidity Stress: Solids are stored at approximately 40° C./75% RH condition for a measured time period by placing the solids into a vial inside a sealed temperature/humidity chamber at the controlled condition. Samples are analyzed after removal from the stress environment.
Crystalline Forms A, B, and C are exposed to accelerated stress conditions for two weeks (Table 18 below). […] Crystalline Form C is metastable at this condition.
Experimental: Relative Humidity Stress
The following relative humidity jars (saturated salt solutions are used to generate desired relative humidity) are utilized: 75% RH (NaCl) and 56% RH (NaBr) (Nyqvist, H., Int. J. Pharm. Tech. &Prod. Mfr. 1983, 4 (2), 47-48).

A short description of series [4]: Storage stability of solid form, XRPD after storage. Conditions: 22 days of ambient storage. The format is physicochemical. Here is the method: Six scale-up attempts are conducted to prepare Crystalline Form C by cooling in isopropanol on approximately 50-150 mg scale (Table 11) and the solids tested by XRPD. At refrigerator temperature, precipitated solids yield Form B. Seeding with Form C after cooling in the refrigerator (no solids observed) and before placing in the freezer yield XRPD pattern of Form C with B peaks. Precipitation at freezer temperature results in solids with an XRPD pattern of Form C with A peaks. A solution placed in the freezer after cooling to room temperature with a lower concentration (7 mg/mL compared to 10 mg/mL) yields Form B. By crash cooling (ambient solution placed into dry ice/isopropanol), solids generated are a mixture of Forms B and A. The last attempt on an approximate 50-mg scale generates a mixture of Forms A and C.
An elliptically graded multilayer mirror is used to focus Cu Kα X-rays through the specimen and onto the detector. Prior to the analysis, a silicon specimen (NIST SRM 640e) is analyzed to verify the observed position of the Si 111 peak is consistent with the NIST-certified position. A specimen of the sample is sandwiched between 3-μm-thick films and analyzed in transmission geometry. A beam-stop, short antiscatter extension, and antiscatter knife edge are used to minimize the background generated by air. Soller slits for the incident and diffracted beams are used to minimize broadening from axial divergence. The diffraction pattern is collected using a scanning position-sensitive detector (X'Celerator) located 240 mm from the specimen and Data Collector software v. 2.2b. Data acquisition parameters are: Panalytical X-Pert Pro MPD PW3040 Pro, X-ray Tube: Cu (1.54059 Å), Voltage: 45 kV, Amperage: 40 mA, Scan Range: 1.00-39.99° 2θ, Step Size: 0.017° 2θ, Collection Time: 719 s, Scan Speed: 3.3°/min., Slit: DS: ½°, SS: null, Revolution Time: 1.0 s, Mode: Transmission.

The target in series [5] is serotonin reuptake (5-HT) (Homo sapiens, UniProt P31645). Conditions: unbalanced triple reuptake inhibitor; cited from earlier work.
Sequence of serotonin reuptake (5-HT) (P31645 whole entry): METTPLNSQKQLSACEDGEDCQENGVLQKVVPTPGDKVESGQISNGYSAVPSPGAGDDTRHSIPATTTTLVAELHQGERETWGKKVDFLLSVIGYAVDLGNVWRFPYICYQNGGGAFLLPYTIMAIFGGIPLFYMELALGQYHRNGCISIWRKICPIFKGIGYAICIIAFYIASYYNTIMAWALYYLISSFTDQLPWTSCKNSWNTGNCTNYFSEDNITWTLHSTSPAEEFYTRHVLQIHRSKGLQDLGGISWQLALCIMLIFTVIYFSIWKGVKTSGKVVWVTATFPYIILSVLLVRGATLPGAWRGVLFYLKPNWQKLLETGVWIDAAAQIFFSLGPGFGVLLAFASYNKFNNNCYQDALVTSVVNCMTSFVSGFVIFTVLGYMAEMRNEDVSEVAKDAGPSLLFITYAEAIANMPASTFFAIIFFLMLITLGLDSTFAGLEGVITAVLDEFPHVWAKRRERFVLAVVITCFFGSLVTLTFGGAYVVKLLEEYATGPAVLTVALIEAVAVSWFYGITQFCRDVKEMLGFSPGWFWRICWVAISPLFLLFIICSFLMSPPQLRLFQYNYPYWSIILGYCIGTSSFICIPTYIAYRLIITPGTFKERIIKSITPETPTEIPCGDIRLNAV
The target of another series is dopamine reuptake (DA) (Homo sapiens, UniProt Q01959). The settings on record: unbalanced triple reuptake inhibitor; cited from earlier work.
Sequence of dopamine reuptake (DA) (Q01959 whole entry): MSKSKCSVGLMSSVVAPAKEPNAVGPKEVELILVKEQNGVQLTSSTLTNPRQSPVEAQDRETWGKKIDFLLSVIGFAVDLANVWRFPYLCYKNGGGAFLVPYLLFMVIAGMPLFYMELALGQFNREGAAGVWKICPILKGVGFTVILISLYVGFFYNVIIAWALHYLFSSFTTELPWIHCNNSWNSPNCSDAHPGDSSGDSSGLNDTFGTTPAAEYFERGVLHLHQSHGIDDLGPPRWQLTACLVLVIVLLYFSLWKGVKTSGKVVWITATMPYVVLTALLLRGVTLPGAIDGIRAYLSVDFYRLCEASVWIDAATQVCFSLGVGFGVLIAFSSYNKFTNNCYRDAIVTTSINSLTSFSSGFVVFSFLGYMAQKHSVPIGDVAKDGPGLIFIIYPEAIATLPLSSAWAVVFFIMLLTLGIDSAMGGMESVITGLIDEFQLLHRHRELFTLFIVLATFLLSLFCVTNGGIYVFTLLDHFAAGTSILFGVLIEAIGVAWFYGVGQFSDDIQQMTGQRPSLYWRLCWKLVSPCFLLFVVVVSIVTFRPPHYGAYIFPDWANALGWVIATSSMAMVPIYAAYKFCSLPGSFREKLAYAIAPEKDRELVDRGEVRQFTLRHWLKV
Series [6] has as its target norepinephrine reuptake (NE) (Homo sapiens, UniProt P23975). Conditions: unbalanced triple reuptake inhibitor; cited from earlier work.
Series [7] can be described thus: Solution calorimetry (SolCal), heats of solution in methanol. The format is physicochemical. Conditions: 25° C. Here is the method: For each test, two heats of solution are obtained—one calculated using a calibration preceding the sample analysis and one calculated using a calibration following the sample analysis. Clear solutions are observed after each test.
Solution calorimetry is performed using a Thermometric 2225 Precision Solution calorimeter, a semi-adiabatic calorimeter. Solution calorimeter System v.1.2 software is used. Samples are weighed into glass crushing ampoules and are sealed using silicone rubber plugs and hot wax. Experiments are carried out in 100 mL of methanol at 25° C. The measurement of the heats of solution of the samples is both preceded and followed by calibrations using an internal heater. The heats of solution are calculated using dynamic of calibration model.

Series [8] can be described thus: Approximate solubility by solvent aliquot addition. The class given is physicochemical. Conditions: in both methanol and water, room temperature. Here is the method: Solution calorimetry (SolCal) analyses are also performed to determine the heats of solution in methanol at 25° C. and confirm the stable form at this temperature (see Example 15).
Experimental: Approximate Solubility
A weighed sample is treated with aliquots of the test solvent at room temperature. The mixture is sonicated between additions to facilitate dissolution. Complete dissolution of the test material is determined by visual inspection. Solubility is estimated based on the total solvent used to provide complete dissolution. The actual solubility may be greater than the value calculated because of the use of solvent aliquots that are too large or due to a slow rate of dissolution.

Where “and” joins values, the source holds several entries; their conditions need not be identical. Identical values can stand only once.

Sequence of norepinephrine reuptake (NE) (P23975 whole entry): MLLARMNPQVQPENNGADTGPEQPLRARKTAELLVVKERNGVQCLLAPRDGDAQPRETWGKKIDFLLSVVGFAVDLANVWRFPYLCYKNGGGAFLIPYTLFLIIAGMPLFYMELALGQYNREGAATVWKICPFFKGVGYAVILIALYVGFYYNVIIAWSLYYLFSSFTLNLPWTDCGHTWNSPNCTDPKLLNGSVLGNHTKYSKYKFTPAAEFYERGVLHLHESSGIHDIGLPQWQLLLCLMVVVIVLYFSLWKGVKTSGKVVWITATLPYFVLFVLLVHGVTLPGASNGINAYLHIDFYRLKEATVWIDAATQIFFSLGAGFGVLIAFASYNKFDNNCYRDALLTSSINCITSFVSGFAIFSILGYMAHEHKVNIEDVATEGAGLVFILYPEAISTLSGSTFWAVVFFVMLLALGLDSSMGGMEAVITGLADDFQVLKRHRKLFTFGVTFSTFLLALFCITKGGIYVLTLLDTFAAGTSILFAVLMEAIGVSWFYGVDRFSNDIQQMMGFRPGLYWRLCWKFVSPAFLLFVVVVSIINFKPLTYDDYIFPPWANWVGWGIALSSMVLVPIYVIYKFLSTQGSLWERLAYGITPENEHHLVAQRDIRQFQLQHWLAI

Consider `Cl.c1ccc2cc([C@]34CNC[C@H]3C4)ccc2c1` [mixture of Forms A and B, (1R,5S)-1-(naphthalen-2-yl)-3-azabicyclo[3.1.0]hexane hydrochloride], for which, in series [1], the “solid form after heat exposure” value is reported as “completely converts to Form A”.
Regarding `Cl.c1ccc2cc([C@]34CNC[C@H]3C4)ccc2c1` [Crystalline Form C, (1R,5S)-1-(naphthalen-2-yl)-3-azabicyclo[3.1.0]hexane hydrochloride], in series [2], the “transition temperature Tt,C→A” value was “between 2 °C and ambient temperature”. In addition, in series [3] (40° C./75% RH, hydrochloride), the “solid form by XRPD after accelerated stress” value was “converts to a mixture of Crystalline Forms A and B”. The “solid form by XRPD after ambient storage” value in series [4] is listed as “remains unchanged”.
Regarding `c1ccc2cc([C@]34CNC[C@H]3C4)ccc2c1` [(1R,5S)-1-(naphthalen-2-yl)-3-azabicyclo[3.1.0]hexane], in series [5], the “potency towards serotonin reuptake (5-HT) relative to norepinephrine reuptake” value is listed as “one-fourteenth as much”. Moreover, on dopamine reuptake (DA), the “potency towards dopamine reuptake (DA) relative to norepinephrine reuptake” value is “one-sixth as potent”. Further, the “potency towards norepinephrine reuptake (NE) among the three reuptakes” value in [6] was “most potent”.
For `Cl.c1ccc2cc([C@]34CNC[C@H]3C4)ccc2c1` [Crystalline Form B, (1R,5S)-1-(naphthalen-2-yl)-3-azabicyclo[3.1.0]hexane hydrochloride], the “relative thermodynamic stability versus Crystalline Form A from heats of solution” value in series [7] is recorded as “more stable”. Also, in series [7] (methanol), the “enthalpy of the transition from Form B to Form A calculated from the SolCal data” value is on record as “about 15.9 J/g”. Moreover, the “average heat of solution” value is given as 64.567 J/g in series [7] (methanol, triplicate, endothermic, hydrochloride) and 64.567 J/g in series [7] (methanol, average of three replicates, hydrochloride). Further, the “ΔH2 (heat of solution)” value in series [7] (methanol, calculated using the calibration after breaking the sample vial, single replicates, hydrochloride) was 64.985 J/g and 65.057 J/g and 65.421 J/g. Further, the “ΔH1 (heat of solution)” value in series [7] (methanol, calculated using the calibration before breaking the sample vial, single replicates, hydrochloride) is 64.004 J/g and 63.471 J/g and 64.461 J/g. Also, the “ΔHmean (heat of solution)” value in series [7] (methanol, mean of the two calibrations, single replicates, hydrochloride) is 64.495 J/g and 64.264 J/g and 64.941 J/g. The “solid form by XRPD after accelerated stress” value in series [3] (30° C./56% RH) is listed as “remain unchanged”; in [3] (40° C./75% RH, hydrochloride), “remain unchanged”. The “apparent solubility compared with Crystalline Form A” value in [8] is reported as “lower apparent solubility”.
